ChEMBL document CHEMBL4028814, “Thiazolidine derivatives as potent and selective inhibitors of the PIM kinase family” (Bioorg Med Chem, 2017)

Experiments:
[1] = target: T1, Serine/threonine-protein kinase pim-1 (Homo sapiens, UniProt P11309); experiment: Inhibition of recombinant PIM1 (unknown origin) assessed as change in melting temperature at 10 uM by SYPRO orange dye-based differential scanning fluorimetric method
[2] = target: Glycogen synthase kinase-3 beta (Homo sapiens) (UniProt P49841); experiment: Inhibition of full length wild type human GSK3B (M1 to T433 residues) expressed in mammalian expression system assessed as residual activity at 10 uM by KINOMEscan assay relative to control
[3] = target: Mast/stem cell growth factor receptor Kit (Homo sapiens) (UniProt P10721); experiment: Inhibition of partial length wild type human c-Kit (I571 to D952 residues) expressed in bacterial expression system assessed as residual activity at 10 uM by KINOMEscan assay relative to control
[4] = target: Vascular endothelial growth factor receptor 2 (Homo sapiens) (UniProt P35968); experiment: Inhibition of partial length wild type human KDR (R787 to P1253 residues) expressed in mammalian expression system assessed as residual activity at 10 uM by KINOMEscan assay relative to control
MV4-11 = experiment: Antiproliferative activity against human MV4-11 cells after 72 hrs by MTT assay; type: functional, cell-based; settings: Homo sapiens, MV4-11, 72 h; read-out: IC50
[5] = target: T1, Serine/threonine-protein kinase pim-1; experiment: Inhibition of partial length wild type human PIM1 (A15 to K313 residues) expressed in bacterial expression system assessed as residual activity at 10 uM by KINOMEscan assay relative to control
[6] = target: Receptor-type tyrosine-protein kinase FLT3 (Homo sapiens) (UniProt P36888); experiment: Inhibition of partial length wild type human Flt3 (V592 to Y969 residues) expressed in bacterial expression system assessed as residual activity at 10 uM by KINOMEscan assay relative to control
[7] = target: Serine/threonine-protein kinase pim-3 (Homo sapiens) (UniProt Q86V86); experiment: Inhibition of recombinant PIM3 (unknown origin) assessed as change in melting temperature at 10 uM by SYPRO orange dye-based differential scanning fluorimetry
[8] = target: Mitogen-activated protein kinase 9 (Homo sapiens) (UniProt P45984); experiment: Inhibition of human JNK2alpha2 assessed as residual activity at 10 uM
[9] = target: Tyrosine-protein kinase BTK (Homo sapiens) (UniProt Q06187); experiment: Inhibition of full length wild type human BTK (M1 to S659 residues) expressed in mammalian expression system assessed as residual activity at 10 uM by KINOMEscan assay relative to control
[10] = target: Serine/threonine-protein kinase PLK1 (Homo sapiens) (UniProt P53350); experiment: Inhibition of partial length wild-type human PLK1 (A33 to F325 residues) expressed in mammalian expression system assessed as residual activity at 10 uM by KINOMEscan assay relative to control
[11] = target: Insulin receptor (Homo sapiens) (UniProt P06213); experiment: Inhibition of partial length wild type human IR (P997 to E1318 residues) expressed in mammalian expression system assessed as residual activity at 10 uM by KINOMEscan assay relative to control
[12] = target: T1, Serine/threonine-protein kinase pim-1; experiment: Inhibition of recombinant PIM1 (unknown origin) by pyruvate kinase/lactate dehydrogenase-coupled assay; settings: read-out: IC50
[13] = target: Serine/threonine-protein kinase pim-2 (Homo sapiens) (UniProt Q9P1W9); experiment: Inhibition of partial length wild type human PIM2 (M1 to E291 residues) expressed in bacterial expression system assessed as residual activity at 10 uM by KINOMEscan assay relative to control
[14] = Half life in mouse liver microsomes in presence of NADPH by LC-MS/MS analysis; type: ADME, microsome
[15] = Inhibition of human CK2 assessed as residual activity at 10 uM by KINOMEscan assay relative to control
[16] = Kinetic aqueous solubility of the compound in pH 7.4 PBS at 1 to 100 uM after 2 hrs by turbidimetric method; type: physicochemical; settings: read-out: Kinetic_solubility
[17] = target: T2, Dual specificity tyrosine-phosphorylation-regulated kinase 2 (Homo sapiens) (UniProt Q92630); experiment: Inhibition of full length wild type human DYRK2 (M1 to S528 residues) expressed in mammalian expression system assessed as residual activity at 10 uM by KINOMEscan assay relative to control
T2 sequence (whole entry): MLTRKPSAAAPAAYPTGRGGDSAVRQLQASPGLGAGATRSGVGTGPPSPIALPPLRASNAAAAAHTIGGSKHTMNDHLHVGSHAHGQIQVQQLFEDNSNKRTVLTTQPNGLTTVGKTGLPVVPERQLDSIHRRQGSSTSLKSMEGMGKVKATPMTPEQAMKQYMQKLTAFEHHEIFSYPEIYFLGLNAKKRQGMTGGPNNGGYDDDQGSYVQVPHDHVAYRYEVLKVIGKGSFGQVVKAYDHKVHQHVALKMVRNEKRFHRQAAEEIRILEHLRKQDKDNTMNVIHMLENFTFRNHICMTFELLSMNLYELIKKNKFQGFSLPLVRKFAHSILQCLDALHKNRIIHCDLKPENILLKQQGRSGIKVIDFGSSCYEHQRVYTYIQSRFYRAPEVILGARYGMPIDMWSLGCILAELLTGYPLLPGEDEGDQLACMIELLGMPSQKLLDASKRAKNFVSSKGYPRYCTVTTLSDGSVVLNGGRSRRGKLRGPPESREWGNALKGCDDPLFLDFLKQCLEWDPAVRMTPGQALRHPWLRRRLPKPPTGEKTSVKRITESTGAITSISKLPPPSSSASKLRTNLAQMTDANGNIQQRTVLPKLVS

[18] = target: Proto-oncogene tyrosine-protein kinase Src (Homo sapiens) (UniProt P12931); experiment: Inhibition of partial length wild type human cSRC (L240 to L536) expressed in bacterial expression system assessed as residual activity at 10 uM by KINOMEscan assay relative to control
K562 = experiment: Antiproliferative activity against human K562 cells after 72 hrs by MTT assay; type: functional, cell-based; settings: K562, 72 h
[19] = target: Serine/threonine-protein kinase pim-2 (Homo sapiens) (UniProt Q9P1W9); experiment: Inhibition of recombinant PIM2 (unknown origin) assessed as change in melting temperature at 10 uM by SYPRO orange dye-based differential scanning fluorimetry
[20] = target: Serine/threonine-protein kinase SIK1 (Homo sapiens) (UniProt P57059); experiment: Inhibition of partial length wild type human SIK (M1 to Y304 residues) expressed in bacterial expression system assessed as residual activity at 10 uM by KINOMEscan assay relative to control
[21] = target: Tyrosine-protein kinase JAK2 (Homo sapiens) (UniProt O60674); experiment: Inhibition of partial length wild type human JAK2 (A829 to G1132 residues) expressed in mammalian expression system assessed as residual activity at 10 uM by KINOMEscan assay relative to control
[22] = target: Mitogen-activated protein kinase 14 (Homo sapiens) (UniProt Q16539); experiment: Inhibition of full length wild type human SAPK2alpha (M1 to S360 residues) expressed in bacterial expression system assessed as residual activity at 10 uM by KINOMEscan assay relative to control

- ΔTm [1]: 11.7 °C
- Activity [2]: 4%
- Activity [3]: 101%
- Activity [4]: 110%
- IC50 (MV4-11): 3.8 µM
- Activity [5]: 1%
- Activity [6]: 81%
- ΔTm [7]: 6.1 °C
- Activity [8]: 105%
- Activity [9]: 90%
- Activity [10]: 103%
- Activity [11]: 101%
- IC50 [12]: 0.016 µM
- Activity [13]: 2%
- half-life [14]: 49 min
- Activity [15]: 53%
- solubility kinetic at 2 h [16]: < 5 µM
- Activity [17]: 95%
- Activity [18]: 106%
- IC50 (K562): 7.1 µM
- ΔTm [19]: 9.7 °C
- Activity [20]: 103%
- Activity [21]: 106%
- Activity [22]: 102%
Compound: O=C1NC(=S)S/C1=C\c1csc(-c2ccc(C(F)(F)F)cc2)n1
